These results are taken from paper PMC10608817, “Extending the Affinity Range of Weak Affinity Chromatography for the Identification of Weak Ligands Targeting Membrane Proteins” (Molecules, 2023).

What is called Kd is the equilibrium constant for the complex coming apart. Higher therefore signals lower affinity.

For this test, the target named is T1, Adenosine-A2A Receptor (AA2AR) (Homo sapiens, UniProt P29274).
T1 construct: gene ADORA2A; human AA2AR N-terminally fused to the flag and decahistidine tags, in nanodiscs
T1 sequence (P29274 whole entry, the tested form may be a part): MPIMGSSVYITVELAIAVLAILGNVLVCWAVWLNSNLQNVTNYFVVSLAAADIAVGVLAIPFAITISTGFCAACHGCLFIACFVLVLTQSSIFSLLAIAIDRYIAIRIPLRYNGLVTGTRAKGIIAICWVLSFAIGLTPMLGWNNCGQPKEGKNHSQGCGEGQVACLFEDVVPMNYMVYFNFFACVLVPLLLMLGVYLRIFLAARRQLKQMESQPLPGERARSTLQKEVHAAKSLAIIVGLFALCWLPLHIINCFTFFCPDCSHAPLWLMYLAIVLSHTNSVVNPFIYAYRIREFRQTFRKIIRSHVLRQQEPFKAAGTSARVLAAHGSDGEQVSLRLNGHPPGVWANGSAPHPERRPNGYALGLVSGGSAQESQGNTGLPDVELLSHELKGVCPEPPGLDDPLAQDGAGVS
Kind of test: biochemical. It is filed as binding.

On to `COc1ccc2[nH]ccc2n1` [F468, 5-methoxy-1H-pyrrolo[3,2-b]pyridine], for which binding was characterised by a dissociation constant (Kd) of 210 µM.

The compound `COc1cc2cc[nH]c2cn1` [F469, 5-methoxy-1H-pyrrolo[2,3-c]pyridine] registered a Kd of 190 µM.
